Results taken from ChEMBL document CHEMBL1141099, “Discovery of N-(2,6-dimethylphenyl)-substituted semicarbazones as anticonvulsants: hybrid pharmacophore-based design” (2005).

Legend:
Mus musculus [1] = assay: Minimum dose required for anticonvulsant activity when given i.p., at 4 hr in mice upon maximal electroshock seizure; assay type: functional
Rattus norvegicus [2] = species: Rattus norvegicus; assay: Ex vitro percentage inhibition activity against GABA-T enzyme at a concentration of 1.25 uM after 6 h; assay type: functional
[3] = molecular target: 4-aminobutyrate aminotransferase, mitochondrial (Rattus norvegicus) (UniProt P50554); assay: In vitro percentage inhibition activity against GABA-T enzyme at a concentration of 2.5 uM after 4.5 h
Sequence of 4-aminobutyrate aminotransferase, mitochondrial (Rattus norvegicus) (P50554 28-500 limits assumed): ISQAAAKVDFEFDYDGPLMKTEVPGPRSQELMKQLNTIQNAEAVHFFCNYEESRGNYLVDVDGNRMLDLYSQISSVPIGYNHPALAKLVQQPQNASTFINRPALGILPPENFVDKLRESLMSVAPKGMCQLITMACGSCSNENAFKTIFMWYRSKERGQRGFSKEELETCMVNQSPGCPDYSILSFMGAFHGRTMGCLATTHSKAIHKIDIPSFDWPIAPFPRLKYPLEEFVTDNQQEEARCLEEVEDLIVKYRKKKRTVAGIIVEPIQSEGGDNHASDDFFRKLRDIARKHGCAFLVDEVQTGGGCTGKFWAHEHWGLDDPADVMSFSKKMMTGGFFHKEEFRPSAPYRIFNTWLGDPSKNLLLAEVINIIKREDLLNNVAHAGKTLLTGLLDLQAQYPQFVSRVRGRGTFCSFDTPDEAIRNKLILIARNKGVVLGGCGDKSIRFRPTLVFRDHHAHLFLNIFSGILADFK

Rattus norvegicus [4] = assay: Toxic dose observed for anticonvulsant activity when given i.p., at 0.25 hr in rat upon neurotoxicity seizure; assay type: functional; details: ip
Mus musculus [5] = assay: Post treatment immobility time for CNS study using Porsolt's swimpool test at a dose of 100 mg/Kg after 1 h when given i.p., in mice (No. of animals 6); Control (24h before) 164
Mus musculus [6] = assay: Mean sleeping time evaluated for CNS study using the pentobarbital-induced narcosis model at a dose of 100 mg/Kg when given i.p., in mice (No. of animals 6)
[7] = molecular target: 4-aminobutyrate aminotransferase, mitochondrial (Rattus norvegicus) (UniProt P50554); assay: In vitro percentage inhibition activity against GABA-T enzyme at a concentration of 2.5 uM after 6 h
Mus musculus [8] = assay: Minimum dose required for anticonvulsant activity when given i.p., at 2 hr in mice upon subcutaneous strychnine seizure; assay type: functional
Rattus norvegicus [9] = assay: Number of rats protected at a dose of 30 mg/Kg when given oral at 0.25 hr upon maximal electroshock seizure; Total number of rats = 4; assay type: functional
Rattus norvegicus [10] = species: Rattus norvegicus; assay: Ex vitro percentage inhibition activity against GABA-T enzyme at a concentration of 1.25 uM after 4.5 h; assay type: functional
Rattus norvegicus [11] = assay: Effective dose required for anticonvulsant activity when given i.p., at 0.25 hr in rat upon maximal electroshock seizure; assay type: functional; details: ip
Mus musculus [12] = assay: Minimum dose required for anticonvulsant activity when given i.p., at 0.5 hr in mice upon subcutaneous strychnine seizure; assay type: functional
Mus musculus [13] = assay: Post treatment activity score for CNS study using a actophotometer at a dose of 100 mg/Kg after 0.5 hr when given i.p., in mice (No. of animals 6); Control (24h before) 260
Rattus norvegicus [14] = assay: Effect on GABA level in rat whole brain concentration after 7 days post-treatment at a dose of 30 mg/Kg when given orally; Control 50.5; assay type: functional
Mus musculus [15] = assay: Minimum dose required for anticonvulsant activity when given i.p., at 0.5 hr in mice upon maximal electroshock seizure; assay type: functional
Rattus norvegicus [16] = species: Rattus norvegicus; assay: Protective index between effective dose and toxic dose in rat; assay type: functional
Rattus norvegicus [17] = assay: Number of rats protected at a dose of 30 mg/Kg when given oral at 2 hr upon maximal electroshock seizure; Total number of rats = 4; assay type: functional
Rattus norvegicus [18] = assay: Number of rats protected at a dose of 30 mg/Kg when given oral at 4 hr upon maximal electroshock seizure; Total number of rats = 4; assay type: functional
Rattus norvegicus [19] = assay: Number of rats protected at a dose of 30 mg/Kg when given oral at 1 hr upon maximal electroshock seizure; Total number of rats = 4; assay type: functional
Mus musculus [20] = assay: Post treatment activity score for CNS study using a actophotometer at a dose of 100 mg/Kg after 1 hr when given i.p., in mice (No. of animals 6); Control (24h before) 260
[21] = molecular target: 4-aminobutyrate aminotransferase, mitochondrial (Rattus norvegicus) (UniProt P50554); assay: In vitro percentage inhibition activity against GABA-T enzyme at a concentration of 2.5 uM after 3 h
Rattus norvegicus [22] = assay: Effect on GABA level in rat whole brain concentration after 2 hr post-treatment at a dose of 100 mg/Kg when given i.p.; Control 48.4; assay type: functional
Mus musculus [23] = assay: Minimum dose required for anticonvulsant activity when given i.p., at 0.5 hr in mice upon subcutaneous pentylenetetrazole seizure; assay type: functional
Rattus norvegicus [24] = assay: Number of rats protected at a dose of 30 mg/Kg when given oral at 0.5 hr upon maximal electroshock seizure; Total number of rats = 4; assay type: functional
Rattus norvegicus [25] = species: Rattus norvegicus; assay: Ex vitro percentage inhibition activity against GABA-T enzyme at a concentration of 1.25 uM after 3 h; assay type: functional
Mus musculus [26] = assay: Minimum dose required for anticonvulsant activity when given i.p., at 0.5 hr in mice upon neurotoxicity seizure using rotarod test; assay type: functional
Mus musculus [27] = assay: Post treatment activity score for CNS study using a actophotometer at a dose of 100 mg/Kg after 1 hr when given i.p., in mice (No. of animals 6); Control (24h before) 280
Mus musculus [28] = assay: Post treatment activity score for CNS study using a actophotometer at a dose of 100 mg/Kg after 0.5 hr when given i.p., in mice (No. of animals 6); Control (24h before) 280
Mus musculus [29] = assay: Post treatment activity score for CNS study using a actophotometer at a dose of 100 mg/Kg after 1 hr when given i.p., in mice (No. of animals 6); Control (24h before) 258
Rattus norvegicus [30] = assay: Toxic dose observed for anticonvulsant activity when given orally at 4 h in rat upon neurotoxicity seizure; assay type: functional; details: po
Mus musculus [31] = assay: Minimum dose required for anticonvulsant activity when given i.p., in mice upon neurotoxicity seizure using rotarod test
Rattus norvegicus [32] = assay: Enzymatic activity to assess the increase in level of SGOT at a dose of 30 mg/Kg for 14 days when given p.o., in 6 rats; Control 73.1; assay type: functional
Rattus norvegicus [33] = assay: Enzymatic activity to assess the increase in level of SGPT at a dose of 30 mg/Kg for 14 days when given p.o., in 6 rats; Control 45.0; assay type: functional
Mus musculus [34] = assay: Post treatment immobility time for CNS study using Porsolt's swimpool test at a dose of 100 mg/Kg after 1 hr when given i.p., in mice (No. of animals 6); Control (24h before) 184
Mus musculus [35] = assay: Post treatment activity score for CNS study using a actophotometer at a dose of 100 mg/Kg after 0.5 hr when given i.p., in mice (No. of animals 6); Control (24h before) 258
Rattus norvegicus [36] = assay: Effective dose required for anticonvulsant activity when given orally at 4 h in rat upon maximal electroshock seizure; assay type: functional; details: po
Rattus norvegicus [37] = assay: Effective dose required for anticonvulsant activity when given orally at 2 h in rat upon maximal electroshock seizure; assay type: functional; details: po
Rattus norvegicus [38] = assay: Toxic dose observed for anticonvulsant activity when given orally at 2 hr in rat upon neurotoxicity seizure; assay type: functional; details: po
Mus musculus [39] = assay: Post treatment activity score for CNS study using a actophotometer at a dose of 100 mg/Kg after 0.5 hr when given i.p., in mice (No. of animals 6); Control (24h before) 214
Mus musculus [40] = assay: Post treatment activity score for CNS study using a actophotometer at a dose of 100 mg/Kg after 1 h when given i.p., in mice (No. of animals 6); Control (24h before) 214
Mus musculus [41] = assay: Post treatment immobility time for CNS study using Porsolt's swimpool test at a dose of 100 mg/Kg after 1 hr when given i.p., in mice (No. of animals 6); Control (24h before) 159
Mus musculus [42] = assay: Post treatment activity score for CNS study using a actophotometer at a dose of 100 mg/Kg after 0.5 hr when given i.p., in mice (No. of animals 6); Control (24h before) 270
Mus musculus [43] = assay: Post treatment activity score for CNS study using a actophotometer at a dose of 100 mg/Kg after 1 hr when given i.p., in mice (No. of animals 6); Control (24h before) 270
Mus musculus [44] = assay: Post treatment activity score for CNS study using a actophotometer at a dose of 100 mg/Kg after 0.5 hr when given i.p., in mice (No. of animals 6); Control (24h before) 224
Mus musculus [45] = assay: Post treatment immobility time for CNS study using Porsolt's swimpool test at a dose of 100 mg/Kg after 1 hr when given i.p., in mice (No. of animals 6); Control (24h before) 176
Mus musculus [46] = assay: Post treatment activity score for CNS study using a actophotometer at a dose of 100 mg/Kg after 1 hr when given i.p., in mice (No. of animals 6); Control (24h before) 224

Structure (SMILES)	MES (Mus musculus [1])	Time (Mus musculus [6])	STY seizure (Mus musculus [8])	Activity (Rattus norvegicus [9])	STY seizure (Mus musculus [12])	MES (Mus musculus [15])	PI (Rattus norvegicus [16])	Activity (Rattus norvegicus [17])	Activity (Rattus norvegicus [18])	Activity (Rattus norvegicus [19])	PTZ seizure (Mus musculus [23])	Activity (Rattus norvegicus [24])	NT (Mus musculus [26])	TD50 (Rattus norvegicus [30])	NT (Mus musculus [31])	SGOT activity (Rattus norvegicus [32])	SGPT activity (Rattus norvegicus [33])	ED50 (Rattus norvegicus [36])	further results
C/C(=N\NC(=O)Nc1c(C)cccc1C)c1ccc(O)cc1	300 mg/kg	108 min	100 mg/kg	1	30 mg/kg	100 mg/kg	>1.6	3	4	4	300 mg/kg	2							Inhibition (Rattus norvegicus [2]): 60%; inhibition [3]: 0%; TD50 (Rattus norvegicus [4]): > 68 mg/kg; Activity (Mus musculus [5]): 198; inhibition [7]: 55%; Inhibition (Rattus norvegicus [10]): 25%; ED50 (Rattus norvegicus [11]): 41.6 mg/kg; Activity (Mus musculus [13]): 205; Activity (Rattus norvegicus [14]): 93.6 ug/100mg of tissue; Activity (Mus musculus [20]): 198; inhibition [21]: 0%; Activity (Rattus norvegicus [22]): 81.1 ug/100mg of tissue; Inhibition (Rattus norvegicus [25]): 0%
Cc1cccc(C)c1NC(=O)/N=N/c1c(O)[nH]c2ccc(Cl)cc12	300 mg/kg		100 mg/kg	1	30 mg/kg	100 mg/kg		1	1	0	300 mg/kg	1	300 mg/kg						Activity (Mus musculus [27]): 267; Activity (Mus musculus [28]): 263
C/C(=N\NC(=O)Nc1c(C)cccc1C)c1ccc(N)cc1	300 mg/kg		100 mg/kg	1	30 mg/kg	100 mg/kg	>15.9	2	4	4	300 mg/kg	3	300 mg/kg	> 464 mg/kg	300 mg/kg	71.3 units/mL	44.6 units/mL	29.1 mg/kg	Activity (Mus musculus [29]): 187; Activity (Mus musculus [34]): 204; Activity (Mus musculus [35]): 202
CC(=O)C/C(C)=N\NC(=O)Nc1c(C)cccc1C	300 mg/kg		300 mg/kg	2	100 mg/kg	100 mg/kg	>10.8	4	4	2	300 mg/kg	4	300 mg/kg		300 mg/kg				ED50 (Rattus norvegicus [37]): 19.8 mg/kg; TD50 (Rattus norvegicus [38]): > 216 mg/kg; Activity (Mus musculus [39]): 127; Activity (Mus musculus [40]): 144; Activity (Mus musculus [41]): 228
Cc1cccc(C)c1NC(=O)/N=N/c1c(O)[nH]c2ccccc12	300 mg/kg		100 mg/kg	2	30 mg/kg	100 mg/kg		1	3	1		2	300 mg/kg						Activity (Mus musculus [42]): 224; Activity (Mus musculus [43]): 217
CC/C(C)=N\NC(=O)Nc1c(C)cccc1C	300 mg/kg	61 min	100 mg/kg	1	30 mg/kg	100 mg/kg	>17.2	3	3	4	300 mg/kg	4		> 500 mg/kg		79.6 units/mL	49.3 units/mL	29 mg/kg	Activity (Mus musculus [44]): 188; Activity (Mus musculus [45]): 199; Activity (Mus musculus [46]): 195
